From US10646501B2, “Reducing the reproductive capacity of mammals” (priority 2012, dated 2020)

Key:
[1] = epoxide assay of chemical reactivity (alkylating assay using 4-(p-nitrobenzyl) pyridine); type: physicochemical; parameters: key to Chemical reactivity (ranking): 1—least chemical reactivity/biological activity; 6—most chemical reactivity/biological activity; conditions: for Chemical reactivity (ranking): reactivity in epoxide assay, rank 1 to 6
Text: The chemical reactivity of the epoxides can determined in an alkylating assay using 4-(p-nitrobenzyl) pyridine (NBP) based on the method reported in “Detection of epoxides with 4-(p-nitrobenzyl) pyridine.” Agarwal et. al. 1979, Bull. Environm. Contam. Toxicol. 23, 825-829, incorporated herein by reference.
Compared chemical (reactivity in epoxide assay) to biological activity (follicle depletion)

[2] = test system: rat pup ovaries (ovarian follicles); experiment: in vitro ovarian culture bioassay of follicle depletion (ovaries cultured 8 days, histology, follicle counts); type: cell-based; parameters: key to Biological activity (ranking, follicle depletion): 1—least chemical reactivity/biological activity; 6—most chemical reactivity/biological activity; conditions: for follicle depletion, diepoxide combined with Triptolide / Biological activity (ranking, follicle depletion): diepoxide 30 μM + Trip 5 nM; for Biological activity (ranking, follicle depletion): rank 1 to 6
Text: The biological activity of the epoxides can be evaluated in an in vitro bioassay using rat pup ovaries based on method reported in “Characterization of a rat in vitro ovarian culture system to study the ovarian toxicant 4-vinylcyclohexene diepoxide.” Devine et. al. 2002, Taxicol. Appl. Pharmacol. 184, 107-115, incorporated herein by reference. Biological activity can be determined by follicle counts in ovarian sections after week long culture with micro molar concentrations of the epoxide. In general, biologically active epoxides will also be chemically active as well but not vice versa.
FIGS. 3A, 3B and 3C illustrate an in vitro culture system for evaluating the efficacy of follicle-depletion compositions (developed by Patrick J. Devine). As set forth in the various examples herein, ovaries are cultured with VCD with or without triptolide in serum-free media for 8 days, no gonadotropins present, no media changes and active ingredients added just once at start of culture. Ovaries are collected and processed for histology to perform follicle counting.
In vitro bioassay of follicle depletion, ovaries cultured for 8 days with different chemicals
Control—no chemicals, Triptolide—5 nM (Trip), Diepoxides. RDE, CHDE, Quetol, ERL 4221, BDE, GDE, each at 30 μM+Trip 5 nM
Ovaries were prepared for histological analysis for determination of follicle depletion

male rat fertility = conditions: oral exposure; cited from earlier work
[3] = test system: Sprague Dawley rats (Rattus norvegicus); conditions: via gavage; cited from earlier work
ovarian failure = experiment: VCD alone as the only active ingredient, premature ovarian failure; type: in vivo; conditions: low concentrations or short exposure durations <15 days
Text: Premature ovarian failure is when no more ovulations occur in spite of eggs/follicles being present in an ovary. For compositions and methods to function as a means of population control, the ovarian failure desirably occurs rapidly, for example within 10 days of treatment for rodents.

[4] = 30 μm VCD alone, cultured ovary, 8 days

C(COCC1CO1)OCC1CO1 (centres unmarked) [Quetol, ethylene glycol diglycidyl ether]
Chemical reactivity (ranking) [1]: 2 | follicle depletion, diepoxide combined with Triptolide ([2]; ovaries cultured 8 days): caused significant follicle depletion | Biological activity (ranking, follicle depletion) ([2]; ovaries cultured 8 days): 5

C1CC(COCC2CO2)CCC1COCC1CO1 (centres unmarked) [CHDE, 1,4-cyclohexanedimethanol diglycidyl ether]
Chemical reactivity (ranking) [1]: 3 | follicle depletion, diepoxide combined with Triptolide ([2]; ovaries cultured 8 days): caused significant follicle depletion | Biological activity (ranking, follicle depletion) ([2]; ovaries cultured 8 days): 4

O=C(OCC1CCC2OC2C1)C1CCC2OC2C1 (centres unmarked) [ERL 4221, 3,4-epoxy-cyclohexyl-methyl-3,4-epoxycyclohexyl carboxylate]
chemical reactivity in words ([1]; among the six diepoxides): least chemically reactive | Chemical reactivity (ranking) [1]: 1 | follicle depletion, diepoxide combined with Triptolide ([2]; ovaries cultured 8 days): caused significant follicle depletion | Biological activity (ranking, follicle depletion) ([2]; ovaries cultured 8 days): 6 | biological activity in words ([2]; when combined with Trip, among the six diepoxides): most biologically active

Oc1cccc(OCC2CO2)c1 (centres unmarked) [RDE, resorcinol glycidyl ether]
Chemical reactivity (ranking) [1]: 4 | follicle depletion, diepoxide combined with Triptolide ([2]; ovaries cultured 8 days): did not cause significant follicle depletion | Biological activity (ranking, follicle depletion) ([2]; ovaries cultured 8 days): 1

CC(C)[C@]12O[C@H]1[C@@H]1O[C@]13[C@]1(O[C@H]1C[C@H]1C4=C(CC[C@@]13C)C(=O)OC4)[C@@H]2O [Triptolide, triptolide]
effect on male rat fertility (male rat fertility): compromise male rat fertility to ultimate sterility | follicle depletion, triptolide alone ([2]; Triptolide 5 nM alone, ovaries cultured 8 days): did not cause significant follicle depletion

C(CCOCC1CO1)COCC1CO1 (centres unmarked) [BDE, 1,4-butanediol diglycidyl ether]
Chemical reactivity (ranking) [1]: 6 | follicle depletion, diepoxide combined with Triptolide ([2]; ovaries cultured 8 days): caused significant follicle depletion | Biological activity (ranking, follicle depletion) ([2]; ovaries cultured 8 days): 3

C1CC2OC2CC1C1CO1 (centres unmarked) [VCD, 4-vinylcyclohexene diepoxide]
primordial follicle depletion [3]: efficacious to cause non-regenerating primordial follicle depletion | premature ovarian failure (ovarian failure): did not cause premature ovarian failure | effect on the other stages of follicles [2, 4]: not significantly affected | reduction in primordial follicles [2, 4]: 38%

OCC(COCC1CO1)OCC1CO1 (centres unmarked) [GDE, glycerol diglycidyl ether]
Chemical reactivity (ranking) [1]: 5 | follicle depletion, diepoxide combined with Triptolide ([2]; ovaries cultured 8 days): caused significant follicle depletion | Biological activity (ranking, follicle depletion) ([2]; ovaries cultured 8 days): 2
